Calls of active or inactive are those of the source.
Assays:
[1] = target: Histone-lysine N-methyltransferase ASH1L (Homo sapiens) (UniProt Q9NR48); assay: Inhibition of N-terminal His-tagged human recombinant ASH1L (2046 to 2330 residues) at higher concentration using oligo nucleosomes as substrate and 3H-SAM as cosubstrate incubated for 60 mins by scintillation counter analysis
[2] = target: Histone-lysine N-methyltransferase EZH2 (Homo sapiens) (UniProt Q15910); assay: Inhibition of N-terminal His-tagged human full-length recombinant EZH2 (2 to 746 residues) in PRC2 complex at higher concentration using core histone as substrate and 3H-SAM as cosubstrate incubated for 60 mins by scintillation counter analysis
[3] = target: T1, Histone-lysine N-methyltransferase EHMT2 (Homo sapiens) (UniProt Q96KQ7); assay: Inhibition of N-terminal/C-terminal His-tagged human recombinant G9a (913 to 1193 residues) at higher concentration using histone H3 (1 to 21 residues) as substrate and 3H-SAM as cosubstrate incubated for 60 mins by scintillation counter analysis
T1 sequence (whole entry): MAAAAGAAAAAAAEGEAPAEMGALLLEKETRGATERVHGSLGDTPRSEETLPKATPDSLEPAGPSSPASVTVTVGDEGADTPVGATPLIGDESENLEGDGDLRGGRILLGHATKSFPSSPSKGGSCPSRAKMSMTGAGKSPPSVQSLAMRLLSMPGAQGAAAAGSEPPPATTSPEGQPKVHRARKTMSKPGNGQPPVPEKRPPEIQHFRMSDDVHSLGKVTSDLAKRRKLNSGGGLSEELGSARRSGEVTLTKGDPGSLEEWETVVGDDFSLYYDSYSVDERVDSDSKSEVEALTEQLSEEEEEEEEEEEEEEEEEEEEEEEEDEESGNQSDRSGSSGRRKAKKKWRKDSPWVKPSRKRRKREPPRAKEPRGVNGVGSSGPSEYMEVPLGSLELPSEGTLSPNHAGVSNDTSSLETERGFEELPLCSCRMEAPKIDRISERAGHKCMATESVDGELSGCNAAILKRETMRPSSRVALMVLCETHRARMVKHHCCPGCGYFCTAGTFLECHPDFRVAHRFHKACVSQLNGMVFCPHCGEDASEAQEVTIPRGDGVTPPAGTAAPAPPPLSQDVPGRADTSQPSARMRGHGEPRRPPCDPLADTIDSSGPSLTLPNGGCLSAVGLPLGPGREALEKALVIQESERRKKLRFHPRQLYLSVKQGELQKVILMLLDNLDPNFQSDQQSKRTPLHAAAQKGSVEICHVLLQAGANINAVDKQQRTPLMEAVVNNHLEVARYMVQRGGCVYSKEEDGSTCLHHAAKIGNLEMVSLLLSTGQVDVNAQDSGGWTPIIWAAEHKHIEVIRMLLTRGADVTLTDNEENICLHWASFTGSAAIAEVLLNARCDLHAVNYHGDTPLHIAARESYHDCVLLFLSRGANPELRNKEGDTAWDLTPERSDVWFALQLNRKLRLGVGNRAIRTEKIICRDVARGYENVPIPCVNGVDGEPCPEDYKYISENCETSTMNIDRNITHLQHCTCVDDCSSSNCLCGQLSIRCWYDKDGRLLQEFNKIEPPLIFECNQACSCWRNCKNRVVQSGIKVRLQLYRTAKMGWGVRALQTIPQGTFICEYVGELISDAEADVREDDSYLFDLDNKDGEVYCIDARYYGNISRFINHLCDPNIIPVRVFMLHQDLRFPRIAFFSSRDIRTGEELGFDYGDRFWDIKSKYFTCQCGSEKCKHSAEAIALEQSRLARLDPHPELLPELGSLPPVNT

Homo sapiens = species on record: Homo sapiens; assay: Inhibition of N-terminal/C-terminal His-tagged human recombinant MLL1 (3745 to 3969 residues)/WDR5 (22 to 334 residues)/RbBP5 (1 to 538 residues)/ASH2L (2 to 534 residues)/DPY-30 (1 to 99 residues) complex at higher concentration using oligo nucleosomes as substrate and 3H-SAM as cosubstrate incubated for 60 mins by scintillation counter analysis
[4] = target: T2, Histone-lysine N-methyltransferase SETD7 (Homo sapiens) (UniProt Q8WTS6); assay: Inhibition of N-terminal/C-terminal His/GST-tagged human recombinant SET7/9 (2 to 366 residues) at higher concentration using core histone as substrate and 3H-SAM as cosubstrate incubated for 60 mins by scintillation counter analysis
T2 sequence (whole entry): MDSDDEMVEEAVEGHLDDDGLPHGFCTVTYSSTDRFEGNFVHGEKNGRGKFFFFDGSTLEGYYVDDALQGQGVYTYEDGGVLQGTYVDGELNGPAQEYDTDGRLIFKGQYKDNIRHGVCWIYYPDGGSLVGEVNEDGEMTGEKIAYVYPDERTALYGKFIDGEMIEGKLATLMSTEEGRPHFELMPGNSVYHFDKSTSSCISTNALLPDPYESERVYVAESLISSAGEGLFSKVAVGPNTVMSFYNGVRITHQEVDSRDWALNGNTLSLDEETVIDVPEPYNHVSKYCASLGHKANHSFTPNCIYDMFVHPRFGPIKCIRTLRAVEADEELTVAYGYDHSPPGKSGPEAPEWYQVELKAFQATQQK

[5] = target: Histone-lysine N-methyltransferase, H3 lysine-79 specific (Homo sapiens) (UniProt Q8TEK3); assay: Inhibition of N-terminal/C-terminal His/GST-tagged human recombinant DOT1L (1 to 416 residues) at 10 uM using oligo nucleosome as substrate and 3H-SAM as cosubstrate incubated for 60 mins by scintillation counter analysis
[6] = target: T3, Protein arginine N-methyltransferase 7 (Homo sapiens) (UniProt Q9NVM4); assay: Inhibition of PRMT7 catalysed methylation of HSP70 at R469 residue in HEK293T cells assessed as increase in ratio of abundance of unmethylated over methylated peptides at 10 to 50 uM measured after 24 to 48 hrs by UHPLC- MS/MS analysis; type: cell-based; details: dose 10-50 µM, time 24-48 hrs
T3 sequence (whole entry): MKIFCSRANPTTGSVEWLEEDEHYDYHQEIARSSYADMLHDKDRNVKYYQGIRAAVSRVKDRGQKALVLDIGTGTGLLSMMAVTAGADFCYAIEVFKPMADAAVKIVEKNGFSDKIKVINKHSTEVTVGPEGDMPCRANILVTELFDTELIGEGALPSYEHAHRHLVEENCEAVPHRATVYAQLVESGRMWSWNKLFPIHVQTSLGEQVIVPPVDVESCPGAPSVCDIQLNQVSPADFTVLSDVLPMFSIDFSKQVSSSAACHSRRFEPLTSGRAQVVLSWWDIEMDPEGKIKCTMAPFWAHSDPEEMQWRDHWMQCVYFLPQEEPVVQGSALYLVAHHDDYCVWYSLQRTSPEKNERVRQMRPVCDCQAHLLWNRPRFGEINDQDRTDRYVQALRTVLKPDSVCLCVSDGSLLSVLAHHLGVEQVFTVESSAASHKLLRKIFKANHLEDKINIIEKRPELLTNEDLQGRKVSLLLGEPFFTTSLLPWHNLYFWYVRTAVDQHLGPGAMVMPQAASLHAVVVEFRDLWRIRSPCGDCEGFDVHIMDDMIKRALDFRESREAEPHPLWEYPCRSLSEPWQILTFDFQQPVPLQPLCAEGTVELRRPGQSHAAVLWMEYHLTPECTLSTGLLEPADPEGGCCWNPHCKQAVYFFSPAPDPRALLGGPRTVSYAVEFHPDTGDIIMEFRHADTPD

Measured: inhibition

Histone-lysine N-methyltransferase EZH2 (Homo sapiens), sequence (Q15910 whole entry, looked up, the tested form may be a part): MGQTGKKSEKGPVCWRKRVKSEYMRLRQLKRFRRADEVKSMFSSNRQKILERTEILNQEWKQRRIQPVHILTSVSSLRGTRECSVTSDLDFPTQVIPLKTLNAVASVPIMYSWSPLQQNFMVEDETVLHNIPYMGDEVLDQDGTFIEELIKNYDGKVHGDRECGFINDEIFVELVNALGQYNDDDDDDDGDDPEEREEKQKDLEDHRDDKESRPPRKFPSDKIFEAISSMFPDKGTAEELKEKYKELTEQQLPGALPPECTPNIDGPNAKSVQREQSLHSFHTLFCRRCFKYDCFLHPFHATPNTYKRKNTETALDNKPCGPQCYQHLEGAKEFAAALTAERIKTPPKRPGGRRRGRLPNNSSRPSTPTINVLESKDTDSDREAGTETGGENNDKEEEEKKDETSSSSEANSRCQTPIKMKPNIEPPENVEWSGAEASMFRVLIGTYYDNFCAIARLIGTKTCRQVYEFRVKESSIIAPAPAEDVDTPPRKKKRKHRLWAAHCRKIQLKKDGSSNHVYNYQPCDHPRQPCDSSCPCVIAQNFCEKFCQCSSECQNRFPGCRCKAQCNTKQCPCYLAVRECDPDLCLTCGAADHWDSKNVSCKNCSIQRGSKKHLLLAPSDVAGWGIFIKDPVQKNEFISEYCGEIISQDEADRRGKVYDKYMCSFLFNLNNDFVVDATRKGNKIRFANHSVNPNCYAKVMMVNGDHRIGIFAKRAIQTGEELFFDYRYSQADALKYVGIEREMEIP
Histone-lysine N-methyltransferase, H3 lysine-79 specific (Homo sapiens), sequence (Q8TEK3 whole entry, looked up, the tested form may be a part): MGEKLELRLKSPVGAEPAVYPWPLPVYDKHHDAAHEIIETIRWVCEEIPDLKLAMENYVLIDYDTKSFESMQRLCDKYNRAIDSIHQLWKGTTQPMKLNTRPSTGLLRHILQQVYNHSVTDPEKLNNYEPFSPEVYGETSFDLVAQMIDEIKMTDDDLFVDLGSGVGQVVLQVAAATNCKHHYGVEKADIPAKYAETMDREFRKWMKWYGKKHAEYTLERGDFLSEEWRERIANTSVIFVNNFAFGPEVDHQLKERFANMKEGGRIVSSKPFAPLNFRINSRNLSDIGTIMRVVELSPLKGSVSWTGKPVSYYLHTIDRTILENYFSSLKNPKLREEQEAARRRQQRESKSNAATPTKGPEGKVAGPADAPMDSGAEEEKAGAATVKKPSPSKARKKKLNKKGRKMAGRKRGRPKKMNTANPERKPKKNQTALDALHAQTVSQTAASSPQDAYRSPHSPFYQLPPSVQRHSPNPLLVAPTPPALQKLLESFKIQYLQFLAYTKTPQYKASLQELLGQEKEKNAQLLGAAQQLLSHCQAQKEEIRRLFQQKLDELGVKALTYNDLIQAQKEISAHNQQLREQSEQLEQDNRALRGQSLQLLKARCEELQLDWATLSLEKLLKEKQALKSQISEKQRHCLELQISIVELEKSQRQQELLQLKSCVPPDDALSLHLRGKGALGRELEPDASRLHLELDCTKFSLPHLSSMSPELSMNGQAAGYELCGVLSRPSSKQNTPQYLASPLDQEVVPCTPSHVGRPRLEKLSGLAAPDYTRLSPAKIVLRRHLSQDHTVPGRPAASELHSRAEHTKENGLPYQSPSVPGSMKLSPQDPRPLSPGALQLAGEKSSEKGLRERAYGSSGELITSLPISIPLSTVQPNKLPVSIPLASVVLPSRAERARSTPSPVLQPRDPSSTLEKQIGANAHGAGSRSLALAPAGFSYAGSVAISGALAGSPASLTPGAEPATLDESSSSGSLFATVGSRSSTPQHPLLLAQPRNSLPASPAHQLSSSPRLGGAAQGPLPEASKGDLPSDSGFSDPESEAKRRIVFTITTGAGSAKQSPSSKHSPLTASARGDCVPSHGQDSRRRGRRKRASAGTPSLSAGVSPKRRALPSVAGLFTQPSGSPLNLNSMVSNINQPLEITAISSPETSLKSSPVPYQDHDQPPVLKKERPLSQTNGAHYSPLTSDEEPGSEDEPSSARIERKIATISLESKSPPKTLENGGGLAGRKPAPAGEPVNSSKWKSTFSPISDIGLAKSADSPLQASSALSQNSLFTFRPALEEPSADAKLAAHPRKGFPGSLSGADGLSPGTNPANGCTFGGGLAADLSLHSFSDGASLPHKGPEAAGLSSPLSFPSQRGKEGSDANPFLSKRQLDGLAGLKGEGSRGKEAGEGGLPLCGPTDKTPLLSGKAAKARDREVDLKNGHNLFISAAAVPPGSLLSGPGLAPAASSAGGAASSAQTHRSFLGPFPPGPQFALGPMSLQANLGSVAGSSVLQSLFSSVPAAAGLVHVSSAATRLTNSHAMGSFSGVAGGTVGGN

COC(=O)c1cc(O)c2cc(NC(=O)NCCCNC(=N)NC[C@H]3O[C@@H](n4cnc5c(N)ncnc54)[C@H](O)[C@@H]3O)cc(C(F)(F)F)c2c1
active: [5] | [6]
inactive: all other assays above
